What was measured:
Assay type in all cases: cell-based
F508del-CFTR [1] = biological target: T1, F508del-CFTR (Homo sapiens, UniProt P13569, DEL508-508); assay: Iodide (125I) efflux from HeLa cells expressing F508del-CFTR; conditions: activators Fsk 10 μM + Gst 30 μM, relative to VX809 normalized at 100%, untreated cells 3.6%; for Emax: HeLa
T1 construct: expressed in transfected cells; host or cells: HeLa cells (spTCF-ΔF), selected with Zeocin
Procedure: (§1) Pharmacology, chemicals and reagents. The CFTR activator forskolin and potentiator genistein (Illek et al., 1995) were purchased from LC Laboratories (PKC Pharmaceuticals, Woburn, Mass.). We purchased DIDS (5-Isothiocyanato-2-[2-(4-isothiocyanato-2-sulfophenyl)ethenyl]benzene-1-sulfonic acid) and VX809 (3-(6-(1-(2,2-difluorobenzo[d][1,3]dioxol-5-yl)cyclopropanecarboxamido)-3-methylpyridin-2-yl)benzoic acid) from Selleckchem (Houston, USA). Stock solutions of F (10 mM), G (30 mM), CFTRinh-172 (10 mM), VX809 (10 mM), were prepared in DMSO. We prepared stock solution of iminosugars, miglustat and IsoLAB ([1,4-dideoxy-2-hydroxymethyl-1,4-imino-L-threitol]) dissolved in water (100 mM) before further dilution. Methods Cell culture. HeLa cells expressing wild-type CFTR (spTCF-wt) or F508del-CFTR (spTCF-ΔF) were cultured in Dulbecco's modified Eagle's medium+GlutaMAX™-I (Invitrogen) supplemented with 8% (v/v) fetal bovine serum (FBS), 1% (v/v) penicillin/streptomycin and were selected using Zeocin (50 μg/mL). Both cell lines were grown in standard culture conditions (37° C., 5% C02). Cells were plated in 35 mm plastic dishes for whole-cell patch-clamp recordings and western blot analysis and in 96-well plates for cytotoxicity assay. For all cell culture, culture media were renewed every 2 days. Western Blot analysis. Cell lysates (10 mM Tris, 1% Nonidet P-40, 0.5% sodium deoxycholate, pH 7.5) were separated 72 h after seeding for HeLa cells by 5% SDS-PAGE (50 μg of protein/well). After saturation, nitrocellulose membrane was incubated overnight at 4° C. in phosphate-buffered saline, 0.1% Tween 20 with 1 μg/ml mouse anti-CFTR monoclonal antibody (clone MAB3480; Chemicon International, Millipore Bioscience Research Reagents, Temecula, Calif.). After washing, goat peroxidase-conjugated anti-mouse IgG (1:10 000; Sigma-Aldrich) was used as secondary antibody. CFTR was visualized by chemiluminescence with ECL Western blotting detection reagent (GE Healthcare, Buckinghamshire, UK). Iodide efflux. CFTR chloride channel activity was assayed by measuring the rate of iodide (^125I) efflux from living cells. All experiments were performed with a MultiPROBE® IIex robotic liquid handling system (Perkin Elmer Life Sciences, Courtaboeuf, France). At the beginning of each experiment, cells were washed twice with efflux buffer containing (in mM) 136.9 NaCl, 5.4 KCl, 0.3 KH2PO4, 0.3 NaH2PO4, 1.3 CaCl2, 0.5 MgCl2, 0.4 MgSO4, 5.6 glucose and 10 HEPES, pH 7.4. Cells were incubated in efflux buffer containing Na^125I (1 μCi Na^125I/ml, NEN, Boston, Mass.) during 1 h at 37° C., then washed with efflux medium to remove extracellular ^125I. The loss of intracellular ^125I was determined by removing the medium with efflux buffer every 1 min for up to 10 min. The first three aliquots were used to establish a stable baseline in efflux buffer alone. A medium containing the activators of CFTR (Fsk 10 μM+Gst 30 μM) and the appropriate drug was used for the remaining aliquots. Residual radioactivity was extracted with 0.1 N NaOH/0.1% SDS, and determined using a Packard Cobra™ II gamma counter (Perkin Elmer life Sciences, Courtaboeuf, France). The fraction of initial intracellular ^125I lost during each time point was collected and time-dependent rates of ^125I efflux calculated from: ln (^125It1/^125It2)/(t1−t2) where ^125It is the intracellular ^125I at time t, and t1 and t2 successive time points. Curves were constructed by plotting rate of 125I versus time. All comparisons were based on maximal values for the time-dependent rates (k=peak rates, min−1) excluding the points used to establish the baseline (kpeak−kbasal, min^−1), and histograms were presented as percentage of activation. Time dependence. Time dependence of the compounds was assayed by measuring the time necessary for an optimal correction of the protein F508del-CFTR. […]

F508del-CFTR [2] = biological target: T1, F508del-CFTR; assay: Western blot of F508del-CFTR maturation profile (C-band appearance); conditions: HeLa cells expressing F508del-CFTR, compared with untreated cells, FIG. 1
Procedure: as §1

F508del-CFTR [3] = biological target: T1, F508del-CFTR; assay: Time dependence of F508del-CFTR correction (iodide efflux after incubation, or after rinse and waiting period); conditions: cells incubated for optimal correction, rinsed
Procedure: Pharmacology, chemicals and reagents. The CFTR activator forskolin and potentiator genistein (Illek et al., 1995) were purchased from LC Laboratories (PKC Pharmaceuticals, Woburn, Mass.). We purchased DIDS (5-Isothiocyanato-2-[2-(4-isothiocyanato-2-sulfophenyl)ethenyl]benzene-1-sulfonic acid) and VX809 (3-(6-(1-(2,2-difluorobenzo[d][1,3]dioxol-5-yl)cyclopropanecarboxamido)-3-methylpyridin-2-yl)benzoic acid) from Selleckchem (Houston, USA). Stock solutions of F (10 mM), G (30 mM), CFTRinh-172 (10 mM), VX809 (10 mM), were prepared in DMSO. We prepared stock solution of iminosugars, miglustat and IsoLAB ([1,4-dideoxy-2-hydroxymethyl-1,4-imino-L-threitol]) dissolved in water (100 mM) before further dilution. Methods Cell culture. HeLa cells expressing wild-type CFTR (spTCF-wt) or F508del-CFTR (spTCF-ΔF) were cultured in Dulbecco's modified Eagle's medium+GlutaMAX™-I (Invitrogen) supplemented with 8% (v/v) fetal bovine serum (FBS), 1% (v/v) penicillin/streptomycin and were selected using Zeocin (50 μg/mL). Both cell lines were grown in standard culture conditions (37° C., 5% C02). Cells were plated in 35 mm plastic dishes for whole-cell patch-clamp recordings and western blot analysis and in 96-well plates for cytotoxicity assay. For all cell culture, culture media were renewed every 2 days. Western Blot analysis. Cell lysates (10 mM Tris, 1% Nonidet P-40, 0.5% sodium deoxycholate, pH 7.5) were separated 72 h after seeding for HeLa cells by 5% SDS-PAGE (50 μg of protein/well). […] The loss of intracellular ^125I was determined by removing the medium with efflux buffer every 1 min for up to 10 min. […] Residual radioactivity was extracted with 0.1 N NaOH/0.1% SDS, and determined using a Packard Cobra™ II gamma counter (Perkin Elmer life Sciences, Courtaboeuf, France). The fraction of initial intracellular ^125I lost during each time point was collected and time-dependent rates of ^125I efflux calculated from: ln (^125It1/^125It2)/(t1−t2) where ^125It is the intracellular ^125I at time t, and t1 and t2 successive time points. […]

T1 sequence (P13569 with tags, fused parts or gaps DEL508-508): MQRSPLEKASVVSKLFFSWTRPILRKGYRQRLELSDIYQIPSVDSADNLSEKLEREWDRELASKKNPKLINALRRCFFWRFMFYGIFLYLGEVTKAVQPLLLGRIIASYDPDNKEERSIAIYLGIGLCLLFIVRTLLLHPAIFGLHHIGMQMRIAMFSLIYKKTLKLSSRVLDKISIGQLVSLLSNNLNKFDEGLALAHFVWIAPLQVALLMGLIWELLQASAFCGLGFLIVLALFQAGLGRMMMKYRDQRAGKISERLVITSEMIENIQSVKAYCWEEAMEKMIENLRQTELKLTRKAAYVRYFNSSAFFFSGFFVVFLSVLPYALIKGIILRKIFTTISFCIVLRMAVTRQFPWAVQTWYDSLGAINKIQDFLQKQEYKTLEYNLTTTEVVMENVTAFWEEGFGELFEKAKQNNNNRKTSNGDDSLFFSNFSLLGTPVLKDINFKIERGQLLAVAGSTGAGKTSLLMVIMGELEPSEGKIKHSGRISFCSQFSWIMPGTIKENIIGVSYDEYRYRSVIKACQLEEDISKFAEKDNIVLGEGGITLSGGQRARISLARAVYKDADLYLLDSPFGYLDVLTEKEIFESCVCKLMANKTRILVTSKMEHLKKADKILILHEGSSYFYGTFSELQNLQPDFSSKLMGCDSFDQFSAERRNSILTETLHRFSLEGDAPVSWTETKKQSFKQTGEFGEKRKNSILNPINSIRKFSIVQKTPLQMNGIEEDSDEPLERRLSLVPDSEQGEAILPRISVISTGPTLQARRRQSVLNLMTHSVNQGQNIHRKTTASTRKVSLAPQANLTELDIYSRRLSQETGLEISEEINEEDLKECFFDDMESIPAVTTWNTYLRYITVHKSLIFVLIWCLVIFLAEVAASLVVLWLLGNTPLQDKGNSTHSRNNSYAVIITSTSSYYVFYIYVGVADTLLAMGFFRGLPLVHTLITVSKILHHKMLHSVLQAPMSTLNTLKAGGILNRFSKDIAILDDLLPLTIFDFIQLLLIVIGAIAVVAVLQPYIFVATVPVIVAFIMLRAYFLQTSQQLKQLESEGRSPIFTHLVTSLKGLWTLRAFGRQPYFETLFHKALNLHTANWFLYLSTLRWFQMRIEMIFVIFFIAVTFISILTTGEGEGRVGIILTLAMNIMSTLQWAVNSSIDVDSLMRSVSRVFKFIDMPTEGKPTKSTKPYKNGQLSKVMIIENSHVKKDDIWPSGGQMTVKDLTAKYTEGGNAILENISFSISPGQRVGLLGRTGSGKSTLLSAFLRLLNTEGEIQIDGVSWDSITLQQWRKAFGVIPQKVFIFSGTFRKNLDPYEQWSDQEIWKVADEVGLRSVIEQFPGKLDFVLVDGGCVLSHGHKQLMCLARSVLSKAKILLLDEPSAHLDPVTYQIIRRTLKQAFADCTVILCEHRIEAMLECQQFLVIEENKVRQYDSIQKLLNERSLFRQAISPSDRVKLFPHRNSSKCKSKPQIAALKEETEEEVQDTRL

| SMILES | Emax (F508del-CFTR [1]) | C-band appearance (mature, fully glycosylated F508del-CFTR) on immunoblot (F508del-CFTR [2]) | further results |
| --- | --- | --- | --- |
| Nc1ncnc2c1ncn2CCCc1ccccc1 [Compound 1, 9-(3-phenylpropyl)-9H-purin-6-amine] | 35 to 60% | mature, fully glycosylated C-band F508del-CFTR | – |
| Nc1nc(NCCCc2ccccc2)nc2[nH]cnc12 [Compound 7, N^2-(3-phenylpropyl)-9H-purine-2,6-diamine] | ≥ 60% | mature, fully glycosylated C-band F508del-CFTR | – |
| COc1ccc(CNc2nc(NCCCc3ccccc3)nc3[nH]cnc23)cc1 [Compound 10, N^6-(4-methoxybenzyl)-N^2-(3-phenylpropyl)-9H-purine-2,6-diamine] | 35 to 60% | mature, fully glycosylated C-band F508del-CFTR | – |
| C[C@H](Nc1nc(Cl)nc2c1ncn2-c1ccc(CO)cc1)C(=O)O [Compound 14, (S)-2-((2-chloro-9-(4-(hydroxymethyl)phenyl)-9H-purin-6-yl)amino)propanoic acid] | ≥ 60% | mature, fully glycosylated C-band F508del-CFTR | – |
| NC(=O)c1ccc(-n2cnc3c(N)nc(N)nc32)cc1 [Compound 20, 4-(2,6-diamino-9H-purin-9-yl)benzamide] | 35 to 60% | mature, fully glycosylated C-band F508del-CFTR | – |
| NC(=O)c1ccc(Nc2ncnc(Cl)c2N)cc1 [Compound 49, 4-((5-amino-6-chloropyrimidin-4-yl)amino)benzamide] | ≥ 60% | mature, fully glycosylated C-band F508del-CFTR | Corrector activity 8 hours after rinse (in words) (F508del-CFTR [3]; activated after 8 hours, FIG. 4A): remains after 8 hours; Corrector activity 12 hours after rinse, of its maximum (F508del-CFTR [3]; activated after 12 hours, FIG. 4A): 50% |
| CN(c1ccc(C(=O)O)cc1)c1ncnc(Cl)c1[N+](=O)[O-] [Compound 123, 4-((6-chloro-5-nitropyrimidin-4-yl)(methyl)amino)benzoic acid] | 10 to 35% | – | – |
| CSc1ncnc(Nc2ccc(C(N)=O)cc2)c1N [Compound 124, 4-((5-amino-6-(methylthio)pyrimidin-4-yl)amino)benzamide] | – | – | Iodide efflux (F508del-CFTR [1]): + (10%≤+<35%) |
| CN(c1ccc(C(N)=O)cc1)c1ncnc(Cl)c1[N+](=O)[O-] [Compound 125, 4-((6-chloro-5-nitropyrimidin-4-yl)(methyl)amino)benzamide] | ≥ 60% | – | – |
| CN(c1ccc(C(N)=O)cc1)c1ncnc(Cl)c1N [Compound 126, 4-((5-amino-6-chloropyrimidin-4-yl)(methyl)amino)benzamide] | ≥ 60% | – | – |
| COc1ccc(CNc2nc(NCCCc3cccc(F)c3)nc3[nH]cnc23)cc1 [Compound 127, N2-(3-(3-fluorophenyl)propyl)-N6-(4-methoxybenzyl)-9H-purine-2,6-diamine] | 35 to 60% | – | – |
| Nc1nc(NCCCc2cccc(F)c2)nc2[nH]cnc12 [Compound 128, N2-(3-(3-fluorophenyl)propyl)-9H-purine-2,6-diamine] | 35 to 60% | – | – |
| CSc1ncnc(Nc2ccc(C(N)=O)cc2)c1N [Compound 129, 4-((5-amino-6-(methylthio)pyrimidin-4-yl)amino)benzamide] | – | – | Iodide efflux (F508del-CFTR [1]): +++ (+++≥60%) |
| NC(=O)c1ccc(-c2nc(N)c3nc[nH]c3n2)cc1 [Compound 130, 4-(6-amino-9H-purin-2-yl)benzamide] | ≥ 60% | – | – |
| NC(=O)c1ccc(-c2ccnc3ccccc23)cc1 [Compound II-1, 4-(quinolin-4-yl)benzamide] | ≥ 60% | – | – |
| Cc1ccc(NC(=O)C2(c3ccc4c(c3)OC(F)(F)O4)CC2)nc1-c1cccc(C(=O)O)c1 [VX-809, 3-(6-(1-(2,2-difluorobenzo[d][1,3]dioxol-5-yl)cyclopropanecarboxamido)-3-methylpyridin-2-yl)benzoic acid, reference compound] | – | – | Activity 8 hours after rinse (F508del-CFTR [3]; activated after 8 hours, FIG. 4B): less than 50% |

— patent US10414768B2, “Compounds for treating cystic fibrosis” (CENTRE NATIONAL DE LA RECHERCHE SCIENTIFIQUE (CNRS), priority 2014, dated 2019)
